Measurements: ChEMBL document CHEMBL6178019, “Discovery of CYP1A1 Inhibitors for Host-Directed Therapy against Sepsis” (J Med Chem, 2025)

Experiments:
Assay type in all cases: cell-based
Cytochrome P450 1A1 = target: T1, Cytochrome P450 1A1 (Homo sapiens, UniProt P04798); test: Inhibition of CYP1A1 in human Caco-2 cells assessed as relative activity by measuring fold change at 5.0 uM incubated for 12 hrs by EROD assay relative to control; details: caco-2, 12 h
T1 sequence (P04798 whole entry): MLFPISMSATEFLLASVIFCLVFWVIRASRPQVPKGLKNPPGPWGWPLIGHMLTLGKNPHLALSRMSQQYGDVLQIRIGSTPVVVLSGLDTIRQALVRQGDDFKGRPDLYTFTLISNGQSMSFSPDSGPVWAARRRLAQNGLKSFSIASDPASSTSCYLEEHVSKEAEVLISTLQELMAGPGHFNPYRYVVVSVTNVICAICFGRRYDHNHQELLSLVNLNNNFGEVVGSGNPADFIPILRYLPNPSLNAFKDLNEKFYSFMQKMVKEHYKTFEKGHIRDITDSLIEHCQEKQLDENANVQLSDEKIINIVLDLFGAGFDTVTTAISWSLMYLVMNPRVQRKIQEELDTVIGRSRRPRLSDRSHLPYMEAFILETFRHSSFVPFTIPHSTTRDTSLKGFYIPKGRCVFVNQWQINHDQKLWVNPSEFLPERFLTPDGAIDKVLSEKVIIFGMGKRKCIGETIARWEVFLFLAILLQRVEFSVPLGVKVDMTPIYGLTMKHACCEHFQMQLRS

CYP1A1 [1] = target: T2, CYP1A1 (Mus musculus, UniProt P00184); test: Inhibition of CYP1A1 in mouse RAW264.7 cells assessed as relative activity by measuring fold change at 500 nM incubated for 12 hrs by EROD assay relative to control; details: read-out: FC
T2 sequence (P00184 whole entry): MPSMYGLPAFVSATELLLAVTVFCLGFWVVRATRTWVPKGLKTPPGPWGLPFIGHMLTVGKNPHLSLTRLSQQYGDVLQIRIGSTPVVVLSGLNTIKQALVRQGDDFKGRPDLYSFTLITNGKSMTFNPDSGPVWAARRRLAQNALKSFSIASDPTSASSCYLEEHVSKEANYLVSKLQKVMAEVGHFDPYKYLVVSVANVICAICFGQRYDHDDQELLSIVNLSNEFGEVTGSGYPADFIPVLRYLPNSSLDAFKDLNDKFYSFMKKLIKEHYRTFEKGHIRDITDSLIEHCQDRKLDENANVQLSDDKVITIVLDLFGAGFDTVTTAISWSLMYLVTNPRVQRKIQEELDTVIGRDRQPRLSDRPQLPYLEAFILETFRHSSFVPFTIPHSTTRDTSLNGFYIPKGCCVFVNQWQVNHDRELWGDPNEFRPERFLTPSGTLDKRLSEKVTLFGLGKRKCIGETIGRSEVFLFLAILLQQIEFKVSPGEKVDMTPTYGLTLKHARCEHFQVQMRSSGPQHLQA

CYP1A1 [2] = target: T3, CYP1A1 (Homo sapiens, UniProt P04798); test: Inhibition of CYP1A1 in human Caco-2 cells assessed as relative activity by measuring fold change at 500 nM incubated for 12 hrs by EROD assay relative to control; details: read-out: FC
T3 sequence (P04798 whole entry): T1 sequence (P04798 whole entry)

CYP1A1 [3] = target: T2, CYP1A1; test: Inhibition of CYP1A1 in mouse RAW264.7 cells assessed as relative activity by measuring fold change at 5 uM incubated for 12 hrs by EROD assay relative to control; details: read-out: FC

| Structure (SMILES) | fold change (FC) (Cytochrome P450 1A1) | fold induction at 12 h, 0.5 µM (CYP1A1 [1]) | fold induction at 12 h, 0.5 µM (CYP1A1 [2]) | fold induction at 12 h, 5 µM (CYP1A1 [3]) |
| --- | --- | --- | --- | --- |
| Cc1ccc(/C=C/C(=O)c2ccc3c(c2)n(C)c(=O)n3C)cn1 | 0.08 | 0.77 | 0.66 | 0.2 |
| Cn1c(=O)n(C)c2cc(C(=O)/C=C/c3ccc(F)cc3Cl)ccc21 | 0.38 | 0.67 | 0.84 | 0.56 |
| Cn1c(=O)n(C)c2cc(C(=O)/C=C/c3ccc(I)o3)ccc21 | 0.18 | 0.75 | 0.5 | 0.55 |
| Cn1c(=O)n(C)c2cc(C(=O)/C=C/c3ccc(B(O)O)cc3F)ccc21 | 0.14 | 1.02 | 0.45 | 0.66 |
| Cn1c(=O)n(C)c2cc(C(=O)/C=C/c3cccnc3)ccc21 | 0.93 | 2.57 | 3.53 | 0.53 |
| Cn1c(=O)n(C)c2cc(C(=O)/C=C/C3CC3)ccc21 | 0.12 | 0.8 | 0.71 | 0.38 |
| Cn1c(=O)n(C)c2cc(C(=O)/C=C/c3ccco3)ccc21 | 0.47 | 0.5 | 0.87 | 0.31 |
| Cn1c(=O)n(C)c2cc(C(=O)/C=C/c3cccn3C(=O)OC(C)(C)C)ccc21 | 0.67 | 0.69 | 0.9 | 0.55 |
| Cn1c(=O)n(C)c2cc(C(=O)/C=C/c3ccoc3)ccc21 | 0.18 | 0.93 | 0.57 | 0.67 |
| Cn1c(=O)n(C)c2cc(C(=O)/C=C/c3cccnc3Br)ccc21 | 0.22 | 0.94 | 0.63 | 0.22 |
| Cn1c(=O)n(C)c2cc(C(=O)/C=C/c3c(F)c(F)c(F)c(F)c3F)ccc21 | 0.34 | 0.69 | 0.8 | 0.43 |
| Cn1c(=O)n(C)c2cc(C(=O)/C=C/c3cc4ccccc4s3)ccc21 | 0.56 | 1.12 | 0.81 | 0.77 |
| Cn1c(=O)n(C)c2cc(S(=O)(=O)NCc3ccccc3)ccc21 | 0.94 | 1.02 | 1.1 | 0.9 |
| Cn1c(=O)n(C)c2cc(C(=O)/C=C/c3ccc(O[Si](C)(C)C(C)(C)C)cc3)ccc21 | 0.43 | 1.11 | 0.69 | 0.89 |
| Cn1c(=O)n(C)c2cc(C(=O)/C=C/c3ccccc3P(c3ccccc3)c3ccccc3)ccc21 | 0.16 | 0.86 | 0.72 | 0.31 |
| Cn1cccc1/C=C/C(=O)c1ccc2c(c1)n(C)c(=O)n2C | 0.09 | 1.47 | 0.45 | 1.07 |
| Cn1c(=O)n(C)c2cc(C(=O)/C=C/c3c4ccccc4cc4ccccc34)ccc21 | 0.71 | 1.15 | 0.8 | 1.06 |
| Cn1c(=O)n(C)c2cc(C(=O)/C=C/c3cc(F)c(F)cc3F)ccc21 | 0.1 | 1.11 | 0.35 | 0.79 |
| C#Cc1cccc(/C=C/C(=O)c2ccc3c(c2)n(C)c(=O)n3C)c1 | 0.01 | 1.07 | 0.18 | 0.14 |
| Cn1c(=O)n(C)c2cc(C(=O)/C=C/c3ccc([N+](=O)[O-])o3)ccc21 | 0.28 | 0.95 | 0.71 | 0.24 |
| CC(C)=CCC/C(C)=C/COc1c2ccoc2cc2oc(=O)ccc12 [BERGAMOTTIN] | 0.05 | 0.44 | 0.19 | 0.18 |

The next lines start with the values.

| fold change (FC) (Cytochrome P450 1A1) | fold induction at 12 h, 0.5 µM (CYP1A1 [1]) | fold induction at 12 h, 0.5 µM (CYP1A1 [2]) | fold induction at 12 h, 5 µM (CYP1A1 [3]) | Structure (SMILES) |
| --- | --- | --- | --- | --- |
| 0.97 | 0.64 | 0.98 | 0.51 | Cn1c(=O)n(C)c2cc(C(=O)/C=C/c3ccc(C(C)(C)C)cc3)ccc21 |
| 0.07 | 1.42 | 0.32 | 0.8 | Cn1c(=O)n(C)c2cc(C(=O)/C=C/c3cccc(F)c3)ccc21 |
| 0.47 | 0.8 | 1.18 | 0.77 | Cn1c(=O)n(C)c2cc(C(=O)/C=C/c3ccc4ccccc4c3)ccc21 |
| 0.07 | 0.63 | 0.22 | 0.19 | C#Cc1ccc(/C=C/C(=O)c2ccc3c(c2)n(C)c(=O)n3C)cc1 |
| 0.13 | 0.61 | 0.38 | 0.17 | Cn1c(=O)n(C)c2cc(C(=O)/C=C/c3ccc4ccccc4n3)ccc21 |
| 0.33 | 0.84 | 0.52 | 0.78 | Cn1c(=O)n(C)c2cc(C(=O)/C=C/c3cn(Cc4ccccc4)c4ccccc34)ccc21 |
| 0.37 | 0.79 | 0.97 | 0.64 | Cn1c(=O)n(C)c2cc(C(=O)/C=C/c3ccc([N+](=O)[O-])cc3)ccc21 |
| 0.28 | 0.95 | 0.71 | 0.22 | Cn1c(=O)n(C)c2cc(C(=O)/C=C/c3ccccc3)ccc21 |
| 3.08 | 1.08 | 2.34 | 1.22 | Cn1c(=O)n(C)c2cc(C(=O)/C=C/c3ccncc3)ccc21 |
| 0.24 | 1.05 | 0.52 | 0.54 | CN(C)c1ccc(/C=C/C(=O)c2ccc3c(c2)n(C)c(=O)n3C)cc1 |
| 0.86 | 1.1 | 0.83 | 0.91 | O=C(/C=C/c1ccc(F)cc1)c1ccccc1 [4-FLUORO CHALCONE] |
| 0.42 | 0.74 | 0.68 | 0.56 | Cn1c(=O)n(C)c2cc(C(=O)/C=C/c3ccc(F)cc3F)ccc21 |
| 0.15 | 0.96 | 0.75 | 0.81 | Cn1c(=O)n(C)c2cc(C(=O)/C=C/c3ccc(-c4ccccc4)cc3)ccc21 |
| 0.39 | 0.79 | 0.85 | 0.49 | Cn1c(=O)n(C)c2cc(C(=O)/C=C/C#Cc3ccccc3)ccc21 |
| 0.9 | 0.5 | 1.29 | 0.22 | Cn1c(=O)n(C)c2cc(C(=O)/C=C/c3coc4ccccc34)ccc21 |
| 0.08 | 0.29 | 0.47 | 0.19 | Cn1c(=O)n(C)c2cc(C(=O)/C=C/c3ccc(F)cc3)ccc21 |
| 0.43 | 1.12 | 0.76 | 0.57 | C#Cc1ccc(/C=C/C(=O)c2ccc(NC(C)=O)cc2)cc1 |
| 0.3 | 0.52 | 0.6 | 0.18 | C#Cc1ccc(/C=C/C(=O)c2ccccc2)cc1 |
